In one data set the test system is Anopheles arabiensis. As to the kind of experiment: Larvicidal screening (WHO protocol), 3rd instar larvae. Type of data set: in vivo. The procedure:
Anopheles arabiensis was used in the study according to the protocol described by WHO (1975) guidelines in an insectary simulating the temperature (27.5° C.), humidity (70%), and lighting (12/12) of a malaria-endemic environment. One mL of test compound (1 mg/mL) was added to 1 mL of acetone and followed by […] of distilled water to obtain a final concentration of 4 μg/mL. Thirty individuals of 3rd instar larvae were introduced into a container. Negative control was set up using the solvent (acetone) and distilled water, and a positive control included Temephos, which is an active emulsified organophosphate larvicidal used by malaria control programs. Larval mortality was examined for each container separately for 24 h and fed specially made cat food that contained less oil/fat content. The percentage of mortality was determined relative to the initial number of larvae exposed.
Differences in larval mortality between treatments were assessed with generalized linear models using a quasi-Poisson link function. Anopheles arabiensis mortality was the dependent variable, while fixed effects were test compounds and observation period (24 and 48 h). A p-value <0.05 was considered statistically significant. Throughout the text, the results are presented as the adjusted mean the standard error.

The values below come from patent US11970489B1, “4-[(substituted 1H-benzimidazol-2-ylsulfanyl)methyl]-6-substituted-2H-chromen-2-ones as larvicidal agents” (KING FAISAL UNIVERSITY, priority 2023, dated 2024).

In general, melting point refers to the temperature of the solid-liquid transition. One may read the mortality as the share of the test organisms that died.

Read-outs that look alike come from different tables or passages of the source.

Consider `Cc1ccc2oc(=O)cc(CSc3nc4ccccc4[nH]3)c2c1`, for which the melting point is 190 to 192 °C.
As for `COc1ccc2nc(SCc3cc(=O)oc4ccc(C)cc34)[nH]c2c1`, the melting point was in the range of 176 to 178 °C.
In the case of `Cc1ccc2oc(=O)cc(CSc3nc4ccccc4s3)c2c1`, the melting point fell in the range of 192 to 194 °C.
The compound `CC(C)(C)c1ccc2oc(=O)cc(CSc3nc4ccccc4[nH]3)c2c1` displayed a melting point of 189 to 190 °C.
For the compound `CC(C)(C)c1ccc2oc(=O)cc(CSc3nc4ccccc4o3)c2c1`, the melting point lay within 212 to 214 °C.
In the case of `Cc1ccc2oc(=O)cc(CSc3nc4ccccc4o3)c2c1` [Compound 3c, 4-[(1,3-Benzoxazol-2-ylsulfanyl)methyl]-6-methyl-2H-chromen-2-one], the mortality at 4 µg/mL in the data set on Anopheles arabiensis (24 h, read-out: Mortality 24 h) came to 70.1 ± 2.29%; in the data set on Anopheles arabiensis (48 h, read-out: Mortality 48 h) it was 75.8 ± 2.21%.
As to `Cc1ccc2oc(=O)cc(CSc3nnc(C)s3)c2c1` [Compound 3e, 6-Methyl-4-{[(5-methyl-1,3,4-thiadiazol-2-yl)sulfanyl]methyl}-2H-chromen-2-one], the mortality at 4 µg/mL with Anopheles arabiensis (24 h, read-out: Mortality 24 h) is 77.2 ± 2.02%; in the data set on Anopheles arabiensis (48 h, read-out: Mortality 48 h) it was 82.2 ± 1.93%.
For the compound `CC(C)(C)c1ccc2oc(=O)cc(CSc3nc4ccccc4s3)c2c1` [Compound 3i, 4-[(1,3-Benzothiazol-2-ylsulfanyl)methyl]-6 tert-butyl-2H-chromen-2-one], the mortality at 4 µg/mL amounted to 89.9 ± 2.44% with Anopheles arabiensis (24 h, read-out: Mortality 24 h) and 94.7 ± 2.11% with Anopheles arabiensis (48 h, read-out: Mortality 48 h).
Consider `Cc1nnc(SCc2cc(=O)oc3ccc(C(C)(C)C)cc23)s1` [Compound 3j, 4-{[(5-Methyl-1,3,4-thiadiazol-2-yl)sulfanyl]methyl}-6 tert-butyl-2H-chromen-2-one], for which the mortality at 4 µg/mL in the data set with Anopheles arabiensis (24 h, read-out: Mortality 24 h) came out at 94.7 ± 2.61%; in the data set with Anopheles arabiensis (48 h, read-out: Mortality 48 h) it was 95.1 ± 2.09%.
In the same order, the values of `COP(=S)(OC)Oc1ccc(Sc2ccc(OP(=S)(OC)OC)cc2)cc1` [Temephos, reference compound] are 98.9 ± 2.7% and 100 ± 2.71%.
